Test results from US20250121068A1, “BIFUNCTIONAL MOLECULES AS PROTEASOME STIMULATORS FOR IMPROVED TARGETED PROTEIN DEGRADATION, AND THEIR USES AS TARGETED BOOSTING DEGRADERS (TARBODS)” (BOOSTER THERAPEUTICS GMBH, priority 2021, published 2025).

Tests used:
[1] = target: T1, a-synuclein (Homo sapiens, UniProt P37840); experiment: a-synuclein degradation in HEK293 cells (western blot); type: cell-based; settings: a-synuclein transfection 48 h, dosed 3 h at 25 μM with 50 μM cycloheximide, compared to DMSO and MO
T1 construct: expressed in transfected cells; host or cells: HEK293
Method: After a-synuclein transfection for 48 h, the compounds were dosed for 3 h at 25 μM together with 50 μM cycloheximide, and the total a-synuclein was determined using western blot. DMSO samples were used as control (dashed line).
FIGS. 2 to 4 show the results of the functional assay for the compounds of group I, FIG. 2 based on proteasome stimulation in vitro. The biochemical assay was performed with a purified human 20S proteasome. The compounds were incubated with 20S proteasomes for 1 h, and the proteasome activity was measured with a TAS-1 probe. DMSO samples were used as control. […] The inventive compounds are better stimulators than the activator alone (MO), especially when they have a longer linker, e.g. (PEG)4-5.

[2] = tested on: tau; experiment: tau degradation in HEK293 cells (western blot); type: cell-based; settings: tau transfection 48 h, dosed 16 h at 25 μM with 30 μM cycloheximide, DMSO control
Method: After tau transfection for 48 h, the compounds were dosed for 16 h at 25 μM together with 30 μM cycloheximide, and total tau was determined (western blot). DMSO samples were used as control (dashed line).
The biochemical assay was performed with a purified human 20S proteasome. The compounds were incubated with 20S proteasomes for 1 h, and the proteasome activity was measured with a TAS-1 probe. DMSO samples were used as control (dashed line). The inventive compounds are better stimulators than the activator alone (MO), especially when they have a longer linker, e.g., (PEG)4-5. […] For proteasome activity in HEK293 cells, the compounds were dosed for 1.5 h, and the proteasome activity measured with Me4BodipyFLAhx3L3VS activity probe. DMSO samples were used as control (dashed line). […] Compounds were dosed for 24 h, and the viability measured with CellTiter-Glo. DMSO samples were used as control (dashed line). […] After tau transfection for 48 h, the compounds were dosed for 16 h at 25 μM together with 30 μM cycloheximide, and total tau was determined (western blot). DMSO samples were used as control (dashed line).

| Structure (SMILES) | a-synuclein degradation (total a-synuclein) [1] | tau degradation (total tau) [2] |
| --- | --- | --- |
| CNc1ccc(-c2nc3ccc(OCCOCCNC(=O)c4ccc(COC(Cn5ccnc5)c5ccc(Cl)cc5Cl)cc4)cc3s2)cc1 (stereo not drawn) [DS001, 4-((1-(2,4-dichlorophenyl)-2-(1H-imidazol-1-yl)ethoxy)methyl)-N-(2-(2-((2-(4-(methylamino)phenyl)benzo[d]thiazol-6-yl)oxy)ethoxy)ethyl)benzamide] | clear improvement in degrading a-synuclein |  |
| O=C(CCc1ccc2c(c1)[nH]c1ccncc12)NCCOCCNC(=O)c1ccc(COC(Cn2ccnc2)c2ccc(Cl)cc2Cl)cc1 (stereo not drawn) [DT-001, N-(2-(2-(3-(5H-pyrido[4,3-b]indol-7-yl)propanamido)ethoxy)ethyl)-4-((1-(2,4-dichlorophenyl)-2-(1H-imidazol-1-yl)ethoxy)methyl)benzamide] |  | clear tau degradation improvement |
| CNc1ccc(-c2nc3ccc(OCCOCCOCCOCCNC(=O)c4ccc(COC(Cn5ccnc5)c5ccc(Cl)cc5Cl)cc4)cc3s2)cc1 (stereo not drawn) [DS003, 4-((1-(2,4-dichlorophenyl)-2-(1H-imidazol-1-yl)ethoxy)methyl)-N-(2-(2-(2-(2-((2-(4-(methylamino)phenyl)benzo[d]thiazol-6-yl)oxy)ethoxy)ethoxy)ethoxy)ethyl)benzamide] | clear improvement in degrading a-synuclein |  |
